Measurements published in US20260078122A1, “INDAZOLE COMPOUNDS AS PKMYT1 KINASE INHIBITORS” (Hoffmann-La Roche Inc., priority 2023, published 2026).

Legend:
[1] = Human hepatocyte stability assay; type: in vitro ADME; conditions: 1 μM compound, 1*10^6 cells/mL, 2-120 min
[2] = Human microsome stability assay; conditions: 1 μM compound, 0.5 mg/mL liver microsomal protein, 1 mM NADPH, 37° C., 0-30 minutes
[3] = biological target: T1, recombinant human Myt1 (full length PKMYT1) (Homo sapiens, UniProt Q99640); test: ADP-Glo assay (Myt1 kinase activity)
T1 sequence (Q99640 1-499): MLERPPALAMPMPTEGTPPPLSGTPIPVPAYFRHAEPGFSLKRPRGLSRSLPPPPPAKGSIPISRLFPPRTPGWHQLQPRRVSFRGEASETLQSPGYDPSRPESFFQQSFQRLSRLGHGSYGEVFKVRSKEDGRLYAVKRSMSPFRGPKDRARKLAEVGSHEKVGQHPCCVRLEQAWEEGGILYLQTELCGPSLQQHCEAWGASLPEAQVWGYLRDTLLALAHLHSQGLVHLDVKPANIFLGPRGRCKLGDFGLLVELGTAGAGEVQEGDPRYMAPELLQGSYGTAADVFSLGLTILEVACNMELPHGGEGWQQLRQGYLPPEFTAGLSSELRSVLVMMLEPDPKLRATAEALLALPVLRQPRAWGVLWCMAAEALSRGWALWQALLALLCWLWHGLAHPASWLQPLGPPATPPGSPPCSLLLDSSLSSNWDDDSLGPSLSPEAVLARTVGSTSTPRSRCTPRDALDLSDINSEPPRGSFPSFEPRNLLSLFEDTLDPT

Clearance of Human hepatocyte (μL/min/10^6 cell) [1] [μL/min/10^6 cell] | Clearance of Human microsome [2] [mL/min/kg] | IC50 [3] [nM] | SMILES
2.1 | – | – | Nc1c(-c2ccc(F)c3[nH]ncc23)c2ncc(Cl)cc2[nH]c1=O [Example 001, 3-Amino-7-chloro-4-(7-fluoro-1H-indazol-4-yl)-1H-1,5-naphthyridin-2-one]
1.3 | – | – | Cc1cnc2c(-c3ccc(F)c4[nH]ncc34)c(N)c(=O)[nH]c2c1 [Example 002, 3-Amino-4-(7-fluoro-1H-indazol-4-y1)-7-methyl-1H-1,5-naphthyridin-2-one]
1.6 | – | – | Cc1cc2[nH]c(=O)c(N)c(-c3ccc(F)c4[nH]ncc34)c2nc1C [Example 017, 3-Amino-4-(7-fluoro-1H-indazol-4-yl)-6,7-dimethyl-1H-1,5-naphthyridin-2-one]
<1 | – | – | Cc1cnc2c(-c3ccc(F)c4[nH]ncc34)c(N)c(=O)[nH]c2c1C [Example 054, 3-Amino-4-(7-fluoro-1H-indazol-4-yl)-7,8-dimethyl-1H-1,5-naphthyridin-2-one]
1.4 | – | – | Cc1cc2[nH]c(=O)c(N)c(-c3ccc(F)c4[nH]ncc34)c2nc1C#CC(C)(C)O [Example 070, 3-Amino-4-(7-fluoro-1H-indazol-4-yl)-6-(3-hydroxy-3-methyl-but-1-ynyl)-7-methyl-1H-1,5-naphthyridin-2-one]
– | 6.15 | 14 | Cc1cc2[nH]c(=O)c(N)c(-c3ccc(F)c4[nH]ncc34)c2nc1C#CC1COCC1O (stereo not drawn) [Example 073, 3-Amino-4-(7-fluoro-1H-indazol-4-yl)-6-[2-(4-hydroxytetrahydrofuran-3-yl)ethynyl]-7-methyl-1H-1,5-naphthyridin-2-one]
– | 6.15 | 11 | Cc1cc2[nH]c(=O)c(N)c(-c3ccc(F)c4[nH]ncc34)c2nc1C#CC(C)O (stereo not drawn) [Example 074, 3-Amino-4-(7-fluoro-1H-indazol-4-yl)-6-(3-hydroxybut-1-ynyl)-7-methyl-1H-1,5-naphthyridin-2-one]
– | 8.12 | 14.8 | Cc1cc2[nH]c(=O)c(N)c(-c3ccc(F)c4[nH]ncc34)c2nc1C#CCN1CCOCC1 [Example 076, 3-Amino-4-(7-fluoro-1H-indazol-4-yl)-7-methyl-6-(3-morpholinoprop-1-ynyl)-1H-1,5-naphthyridin-2-one]
– | 6.15 | 16.4 | Cc1cc2[nH]c(=O)c(N)c(-c3ccc(F)c4[nH]ncc34)c2nc1C1CCN(C)CC1 [Example 082, 3-Amino-4-(7-fluoro-1H-indazol-4-yl)-7-methyl-6-(1-methyl-4-piperidyl)-1H-1,5-naphthyridin-2-one]
– | 6.15 | < 10 | Cc1nc(C)c2[nH]c(=O)c(N)c(-c3ccc(F)c4[nH]ncc34)c2n1 [Example 084, 7-Amino-8-(7-fluoro-1H-indazol-4-yl)-2,4-dimethyl-5H-pyrido[3,2-d]pyrimidin-6-one]
– | 6.15 | 13 | Cc1cc(Cl)c2[nH]c(=O)c(N)c(-c3ccc(F)c4[nH]ncc34)c2n1 [Example 090, 3-Amino-8-chloro-4-(7-fluoro-1H-indazol-4-yl)-6-methyl-1H-1,5-naphthyridin-2-one]
– | 6.15 | 14 | Cc1cc(Cl)nc2c(-c3ccc(F)c4[nH]ncc34)c(N)c(=O)[nH]c12 [Example 091, 3-Amino-6-chloro-4-(7-fluoro-1H-indazol-4-yl)-8-methyl-1H-1,5-naphthyridin-2-one]
– | 6.15 | 14.4 | Cc1cc2[nH]c(=O)c(N)c(-c3ccc(F)c4[nH]ncc34)c2nc1C#N [Example 092, 7-Amino-8-(7-fluoro-1H-indazol-4-yl)-3-methyl-6-oxo-5H-1,5-naphthyridine-2-carbonitrile]
– | 7.72 | 18.7 | Cc1cc2[nH]c(=O)c(N)c(-c3ccc(F)c4[nH]ncc34)c2nc1C1CN(C)C1 [Example 098, 3-Amino-4-(7-fluoro-1H-indazol-4-yl)-7-methyl-6-(1-methylazetidin-3-yl)-1H-1,5-naphthyridin-2-one]
<1 | – | – | Cc1c(C2CC2)cnc2c(-c3ccc(F)c4[nH]ncc34)c(N)c(=O)[nH]c12 [Example 100, 3-Amino-7-cyclopropyl-4-(7-fluoro-1H-indazol-4-yl)-8-methyl-1H-1,5-naphthyridin-2-one]
– | 7.13 | 22.3 | Cc1cc2c(-c3ccc(F)c4[nH]ncc34)c(N)c(=O)[nH]c2nc1C [Example 107, 3-Amino-4-(7-fluoro-1H-indazol-4-yl)-6,7-dimethyl-1H-1,8-naphthyridin-2-one]
– | 6.15 | 16.7 | Cc1nc2c(-c3ccc(F)c4[nH]ncc34)c(N)c(=O)[nH]c2c(C)c1C [Example 110, 3-Amino-4-(7-fluoro-1H-indazol-4-yl)-6,7,8-trimethyl-1H-1,5-naphthyridin-2-one]
– | 7.72 | 14.9 | Cc1c(N2CCC2)cnc2c(-c3ccc(F)c4[nH]ncc34)c(N)c(=O)[nH]c12 [Example 117, 3-Amino-7-(azetidin-1-yl)-4-(7-fluoro-1H-indazol-4-yl)-8-methyl-1H-1,5-naphthyridin-2-one]
– | 6.15 | 17.8 | Cc1c(C#N)cnc2c(-c3ccc(F)c4[nH]ncc34)c(N)c(=O)[nH]c12 [Example 118, 7-Amino-8-(7-fluoro-1H-indazol-4-yl)-4-methyl-6-oxo-5H-1,5-naphthyridine-3-carbonitrile]
– | 6.15 | 17.2 | Cc1c(-c2ccnnc2)cnc2c(-c3ccc(F)c4[nH]ncc34)c(N)c(=O)[nH]c12 [Example 120, 3-Amino-4-(7-fluoro-1H-indazol-4-yl)-8-methyl-7-pyridazin-4-yl-1H-1,5-naphthyridin-2-one]
– | 6.15 | < 10 | Cc1c(C2COC2)cnc2c(-c3ccc(F)c4[nH]ncc34)c(N)c(=O)[nH]c12 [Example 122, 3-Amino-4-(7-fluoro-1H-indazol-4-yl)-8-methyl-7-(oxetan-3-yl)-1H-1,5-naphthyridin-2-one]
– | 6.15 | < 10 | Cc1c(C(C)(F)F)cnc2c(-c3ccc(F)c4[nH]ncc34)c(N)c(=O)[nH]c12 [Example 134, 3-Amino-7-(1,1-difluoroethyl)-4-(7-fluoro-1H-indazol-4-yl)-8-methyl-1H-1,5-naphthyridin-2-one]
– | 6.15 | 18.4 | Cc1c([S+](C)[O-])cnc2c(-c3ccc(F)c4[nH]ncc34)c(N)c(=O)[nH]c12 (stereo not drawn) [Example 142, 3-Amino-4-(7-fluoro-1H-indazol-4-yl)-8-methyl-7-methylsulfinyl-1H-1,5-naphthyridin-2-one]
– | 6.15 | 11 | Cc1c(S(C)(=O)=O)cnc2c(-c3ccc(F)c4[nH]ncc34)c(N)c(=O)[nH]c12 [Example 143, 3-Amino-4-(7-fluoro-1H-indazol-4-yl)-8-methyl-7-methylsulfonyl-1H-1,5-naphthyridin-2-one]
– | 6.15 | 15.5 | Cc1nc(C#N)c2c(-c3ccc(F)c4[nH]ncc34)c(N)c(=O)[nH]c2c1C [Example 161, 3-Amino-4-(7-fluoro-1H-indazol-4-yl)-7,8-dimethyl-2-oxo-1H-1,6-naphthyridine-5-carbonitrile]
– | 6.15 | < 10 | Cc1cnc(Cl)c2c(-c3ccc(F)c4[nH]ncc34)c(N)c(=O)[nH]c12 [Example 164, 3-Amino-5-chloro-4-(7-fluoro-1H-indazol-4-yl)-8-methyl-1H-1,6-naphthyridin-2-one]
– | 6.15 | 14.7 | Cc1nc(C2CC2)cc2[nH]c(=O)c(N)c(-c3ccc(F)c4[nH]ncc34)c12 [Example 166, 3-Amino-7-cyclopropyl-4-(7-fluoro-1H-indazol-4-yl)-5-methyl-1H-1,6-naphthyridin-2-one]
– | 6.20 | 10.9 | COc1ncc(C)c2[nH]c(=O)c(N)c(-c3ccc(F)c4[nH]ncc34)c12 [Example 172, 3-Amino-4-(7-fluoro-1H-indazol-4-yl)-5-methoxy-8-methyl-1H-1,6-naphthyridin-2-one]
– | 6.20 | 14.7 | Cc1ncc(OC(C)C)c2c(-c3ccc(F)c4[nH]ncc34)c(N)c(=O)[nH]c12 [Example 182, 3-Amino-4-(7-fluoro-1H-indazol-4-yl)-5-isopropoxy-8-methyl-1H-1,7-naphthyridin-2-one]
– | 6.15 | 11.4 | Cc1ncc(OC(F)F)c2c(-c3ccc(F)c4[nH]ncc34)c(N)c(=O)[nH]c12 [Example 185, 3-Amino-5-(difluoromethoxy)-4-(7-fluoro-1H-indazol-4-yl)-8-methyl-1H-1,7-naphthyridin-2-one]
